The values below come from US8828989B2, “Oxy-cyclohexyl-4H,6H-5-oxa-2,3,10b-triaza-benzo[E]azulenes as V1A antagonists” (Hoffmann-La Roche Inc., priority 2011, dated 2014).

Molecules are shown by their SMILES.

The target in this experiment is T1, human V1a receptor (Homo sapiens, UniProt P37288).
T1 construct: expressed in transfected cells; host or cells: HEK293 cells, transiently transfected (membrane preparation)
T1 sequence (P37288 whole entry): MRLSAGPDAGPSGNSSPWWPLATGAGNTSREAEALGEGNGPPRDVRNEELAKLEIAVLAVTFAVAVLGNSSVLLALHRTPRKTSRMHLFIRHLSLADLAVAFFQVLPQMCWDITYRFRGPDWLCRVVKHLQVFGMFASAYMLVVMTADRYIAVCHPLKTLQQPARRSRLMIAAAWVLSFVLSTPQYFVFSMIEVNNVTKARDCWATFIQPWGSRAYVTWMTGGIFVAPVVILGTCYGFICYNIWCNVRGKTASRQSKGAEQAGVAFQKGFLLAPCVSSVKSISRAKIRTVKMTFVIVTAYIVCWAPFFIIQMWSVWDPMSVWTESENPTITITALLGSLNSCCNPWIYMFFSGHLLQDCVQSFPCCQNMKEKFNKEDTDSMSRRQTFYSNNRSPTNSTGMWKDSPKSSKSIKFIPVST
The experiment in a line: human V1a receptor binding studies (3H-Vasopressin SPA, membranes of transfected HEK293 cells). To be noted: 3H-Vasopressin displacement, HEK293 cell membranes, Ki by Cheng-Prussoff equation; read-out: pKi hV1a (converted). How it is done: The human V1a receptor was cloned by RT-PCR from total human liver RNA. The coding sequence was subcloned in an expression vector after sequencing to confirm the identity of the amplified sequence. […] Cell membranes were prepared from HEK293 cells transiently transfected with the expression vector and grown in 20 liter fermenters with the following protocol.
50 g of cells are resuspended in 30 ml freshly prepared ice cold Lysis buffer (50 mM HEPES, 1 mM EDTA, 10 mM MgCl2 adjusted to pH=7.4+complete cocktail of protease inhibitor (Roche Diagnostics)). Homogenized with Polytron for 1 min and sonicated on ice for 2×2 minutes at 80% intensity (Vibracell sonicator). The preparation is centrifuged 20 min at 500 g at 4° C., the pellet is discarded and the supernatant centrifuged 1 hour at 43,000 g at 4° C. (19,000 rpm). The pellet is resuspended in 12.5 ml Lysis buffer+12.5 ml Sucrose 20% and homogenized using a Polytron for 1-2 min. The protein concentration is determined by the Bradford method and aliquots are stored at −80° C. until use. For binding studies 60 mg Yttrium silicate SPA beads (Amersham) are mixed with an aliquot of membrane in binding buffer (50 mM Tris, 120 mM NaCl, 5 mM KCl, 2 mM CaCl2, 10 mM MgCl2) for 15 minutes with mixing. 50 μl of bead/membrane mixture is then added to each well of a 96 well plate, followed by 50 μl of 4 nM 3H-Vasopressin (American Radiolabeled Chemicals). For total binding measurement 100 μl of binding buffer are added to the respective wells, for non-specific binding 100 μl of […] cold vasopressin and for compound testing 100 μl of a serial dilution of each compound in 2% DMSO. The plate is incubated 1 h at room temperature, centrifuged 1 min at 1000 g and counted on a Packard Top-Count. Non-specific binding counts are subtracted from each well and data is normalized to the maximum specific binding set at 100%. To calculate an IC 50 the curve is fitted using a non-linear regression model (XLfit) and the Ki is calculated using the Cheng-Prussoff equation.
Consider `CC(C)O[C@H]1CC[C@H](c2nnc3n2-c2ccc(Cl)cc2COC3)CC1` [Example 1, trans-8-Chloro-1-(4-isopropoxy-cyclohexyl)-4H,6H-5-oxa-2,3,10b-triaza-benzo[e]azulene], for which the Ki is 19.1 nM.
Then `CCC(C)O[C@H]1CC[C@H](c2nnc3n2-c2ccc(Cl)cc2COC3)CC1` (stereo partly drawn) [Example 2, trans-1-(4-sec-Butoxy-cyclohexyl)-8-chloro-4H,6H-5-oxa-2,3,10b-triaza-benzo[e]azulene], with 4.37 nM.
As for `Clc1ccc2c(c1)COCc1nnc([C@H]3CC[C@H](OC4CCCC4)CC3)n1-2` [Example 3, trans-8-Chloro-1-(4-cyclopentyloxy-cyclohexyl)-4H,6H-5-oxa-2,3,10b-triaza-benzo[e]azulene], the figure is 0.407 nM.
For the compound `Clc1ccc2c(c1)COCc1nnc([C@H]3CC[C@H](Oc4ccccc4)CC3)n1-2` [Example 4, trans-8-Chloro-1-(4-phenoxy-cyclohexyl)-4H,6H-5-oxa-2,3,10b-triaza-benzo[e]azulene], the Ki is 1.32 nM.
Then `Clc1ccc2c(c1)COCc1nnc([C@H]3CC[C@H](Oc4ccccn4)CC3)n1-2` [Example 5, trans-8-Chloro-1-[4-(pyridin-2-yloxy)-cyclohexyl]-4H,6H-5-oxa-2,3,10b-triaza-benzo[e]azulene], with 2.34 nM; and `Clc1ccc2c(c1)COCc1nnc([C@H]3CC[C@H](Oc4cnccn4)CC3)n1-2` [Example 6, trans-8-Chloro-1-[4-(pyrazin-2-yloxy)-cyclohexyl]-4H,6H-5-oxa-2,3,10b-triaza-benzo[e]azulene], with 26.9 nM.
